# Measured values: patent publication US8937091B2 (Japan Science and Technology Agency, priority 2009, dated 2015)
# Like-named read-outs stand apart in the source and are kept apart here.
# Columns and labels:
# TGase = TGase (Cavia porcellus, UniProt P08587); type: biochemical; settings: level with DMSO control designated as 100
# Protocol: An enzyme reaction solution (0.1 ml) (100 mM HEPES-NaOH, pH 7.5, 1 mM CaCl2, 20 μM monodansyl cadaverine, 0.05 mg/ml N,N-dimethylcasein, 5 μg/ml TGase) was introduced into wells of a 96-well plate (Nunc, 96 Well Black Plate with Clear Bottom). A test compound was added in concentrations of 0.3, 1.0, 3.0, 10, and 30 μM. The solution and the compound were sufficiently mixed while preventing foaming. The plate was set in the fluorescence drug screening system FDSS 3000 (Hamamatsu Photonics K.K.). TGase-inhibiting activity of the compound was calculated by assaying changes in fluorescence wavelength (at 340 nm) per unit time. […] The assay level at which TGase activity decreased by half in the presence of the test compound was designated as TG 50.
# Hereafter, the numerals in parentheses written after the TG level, the SOCE level, and the IICR level correspond to the test compound concentrations. The number following the name of each title compound used in the Examples below represents a compound ID number designated arbitrarily by the present inventors.
# [1] = test system: IICR (IP3 induced calcium release) in CHO cells; assay: Assay of IICR (IP3 induced calcium release)-inhibiting action; type: cell-based, Chinese hamster; settings: CHO cells, 10 μM ATP
# Method in brief: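 CHO cell medium replaced with calcium-containing BSS; compound added 1 min later, then 10 μM ATP after a further 2 min. Percent inhibition of the ATP-evoked rise in intracellular calcium determined at each compound concentration.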
# [2] = test system: SOCE (store operated calcium entry) in CHO cells; assay: Assay of SOCE (store operated calcium entry)-inhibiting action; type: cell-based, Chinese hamster; settings: CHO cells, thapsigargin
# Method in brief: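 CHO cells in calcium-free BSS received compound, then 1 μM thapsigargin 2 min later to deplete stores; after 9 min, 2 mM calcium chloride (final) added. Percent inhibition of the rise in intracellular calcium determined at various compound concentrations.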
Compound,TG level (TGase; test compound 3 μmol),TG level (TGase; test compound 10 μmol),TG level (TGase; test compound 30 μmol),IICR level (percentage of inhibition) ([1]; test compound 10 μmol) [%],IICR level (percentage of inhibition) ([1]; test compound 30 μmol) [%],IICR level (percentage of inhibition) ([1]; test compound 100 μmol) [%],SOCE level (percentage of inhibition) ([2]; test compound 10 μmol) [%],SOCE level (percentage of inhibition) ([2]; test compound 30 μmol) [%],SOCE level (percentage of inhibition) ([2]; test compound 100 μmol) [%]
"N,N-bis(2-thiophenoylethyl)cystinemethylester [Example 389]",9.7,2.7,−3.8,22,45,54,20,40,50
O=C(CCNCCSSCCNCCC(=O)c1ccc(Br)s1)c1ccc(Br)s1 [Example 340],0.8,2.5,4.3,0,40,60,0,18,65
O=C(CCNCCSSCCNCCC(=O)c1ccc2ccccc2c1)c1ccc2ccccc2c1 [Example 370],36,–,1.6,0,0,29,0,0,3
2-(N-isopropylbenzyl)aminoethylferrocenylketone [Example 286],99.2,–,54.2,50,80,50,–,0,0
O=C(CCNCCSSCCNCCC(=O)c1cccs1)c1cccs1 [Example 369],95.1,–,−64.9,0,0,70,20,40,50
O=C(CCNCCCCNCCC(=O)c1ccc(Br)s1)c1ccc(Br)s1 [Example 356],93,22.6,3.6,0,0,10,0,3,10
O=C(CCNCCSSCCNCCC(=O)c1ccsc1)c1ccsc1 [Example 380],25,–,4.2,10,76,81,4,31,70
2-(N-isopropyl-2-hydroxyethyl)aminoethylferrocenylketone [Example 287],100,–,60.8,20,40,40,–,0,10
"N,N-bis(2-(5-bromo-2-thiophenoyl)ethyl)cystinemethylester [Example 386]",4.6,2.9,14,44,72,77,20,40,50
2-(N-isopropylbenzyl)aminoethyl-1-methyl-2-pyrrylketone [Example 195],73,62.6,6.4,0,0,0,0,0,10
